Data on 16 compounds can be found in PubChem BioAssay (NCI).

Values joined by “and” are separate entries in the source; they are usually repeats but may differ in a detail not shown here. Equal entries are not always repeated.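 Exposure lasted 48 hours, with cells grown in 96-well plates and compounds tested at five concentrations. Abbreviation: GI50, concentration required for 50% inhibition of growth. TGI: concentration producing complete growth inhibition.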 Bounds are passed on as bounds.

Holding throughout (test): NCI anticancer screen, dose series, 48 h
The test system of assay [1] is OVCAR-3 ovarian.
Assay [2] has as its system K-562 leukemia.
Assay [3] relates to HL-60(TB) leukemia.
In assay [4] the test system is LOX IMVI melanoma.
Assay [5] concerns UACC-62 melanoma.
Assay [6] has as its system A549 NSCLC.
Assay [7] deals with SNB-75 CNS.
For assay [8], the system named is M14 melanoma.
The subject of assay [9] is HCC-2998 colon.
Assay [10] deals with 786-0 renal.

As to `N#Cc1ccc(Oc2nccc(-c3c(-c4ccc(F)cc4)ncn3C3CCNCC3)n2)cc1`, the GI50 in assay [1] is above 25 µM; in assay [2], 5.01 µM; in assay [3], above 25 µM; in [4], 5.85 µM; in assay [5], above 25 µM; in assay [6] it was above 16.3 µM. Besides, the GI50 in assay [7] is above 16 µM; in assay [8] it was above 16.4 µM; in [9] it was 18.6 µM; in [10], above 25 µM. The TGI is above 25 µM in assay [1]; 12.4 µM in [2]; above 25 µM in [3]; above 13.5 µM in assay [4]; above 25 µM in [5]; above 25 µM in assay [6]. Moreover, the TGI in [7], in assay [8], in assay [9] and in assay [10] was above 25 µM throughout.

`COc1cc2c(cc1OCCCCNC(=O)c1cc3ccccc3[nH]1)N=CC1CCCN1C2=O` (centres undefined): the GI50 is 8.59 µM in assay [1]; 8.35 µM in [2]; 7.97 µM in assay [3]; 8.96 µM in [4]; 15.8 µM in assay [5]; 28.3 µM in assay [6]. The GI50 in assay [7] was 33.9 µM; in assay [8], 28.2 µM; in [9] it was 16.6 µM; in assay [10], 33.5 µM. For the same compound, the TGI in assay [1] was above 100 µM; in [2], above 100 µM; in [3], above 100 µM; in [4], 63.8 µM; in assay [5], 40.7 µM; in [6] it was above 100 µM. Besides, the TGI in [7] was above 100 µM; in assay [8] it was above 100 µM; in [9], 45.1 µM; in assay [10], above 100 µM.

In the case of `COCCc1c(C)c(C#N)c2n(C)c3ccccc3n2c1=O`, the TGI in [1], in assay [2], in assay [3], in assay [4], in [5] and in assay [6] was above 10 µM each time. Also, the TGI in assay [7], in assay [8], in assay [9] and in assay [10] was above 10 µM throughout.

Consider `C=C1C(=O)OC2CCCCC3OC3C12` (centres undefined), for which the TGI turned out to be 26.5 µM in assay [1]; 70.5 µM in [2]; 9.72 µM in [3]; 31.9 µM in assay [4]; 13.7 µM in assay [5]; 40.2 µM in assay [6]. Also, the TGI in assay [7] came to 59.1 µM; in assay [8], 20.4 µM; in assay [9], 23.9 µM; in assay [10], 19.8 µM.

With `CCCCCCN(CCCCCC)CCCNc1nccc2ccccc12`, the GI50 in assay [1] was 1.73 µM; in assay [2], 1.95 µM; in assay [3], 1.77 µM; in [4] it was 1.43 µM; in assay [5], 1.69 µM; in assay [6], 2.64 µM. Also, the GI50 is 1.65 µM in assay [7], 1.42 µM in assay [8], 1.98 µM in assay [9] and 1.81 µM in [10]. Further, the TGI in assay [1] is 3.55 µM; in assay [2] it was 5.18 µM; in assay [3] it was 4.26 µM; in assay [4], 2.94 µM; in [5] it was 3.41 µM; in assay [6], 7.98 µM. The TGI is 4.22 µM in assay [7], 2.89 µM in assay [8], 3.75 µM in assay [9] and 3.98 µM in [10].

Take `c1cncc(CNc2ccccc2-c2nnc(Nc3ccc4c(c3)OCO4)o2)c1`: the GI50 is 0.0303 µM in [1]; 0.0474 µM in assay [2]; 0.0259 µM in [3]; 0.0547 µM in assay [4]; 0.0542 µM in assay [5]; 0.0686 µM in assay [6]. In addition, the GI50 in assay [7] was 0.0246 µM; in assay [8], 0.056 µM; in assay [9], 0.113 µM; in assay [10] it was 0.14 µM. Also, the TGI in [1] is 0.0866 µM; in assay [2] it was above 100 µM; in assay [3] it was 0.147 µM; in assay [4] it was above 100 µM; in assay [5] it was above 100 µM; in assay [6] it was above 100 µM. Further, the TGI is above 100 µM in [7], above 100 µM in [8] and above 90.4 µM in assay [10].

On to `O=C1Cc2cc(CCn3ccnc3)c(Cl)cc2N1`, for which the GI50 in assay [1] is 9.31 µM; in assay [2], 8.26 µM; in assay [3], 63.2 µM; in assay [4], 85.3 µM; in [5], 7.68 µM; in assay [6] it was 7.63 µM. Moreover, the GI50 in [7] is 21.6 µM; in assay [8] it was 3.46 µM; in assay [9], 32.2 µM; in assay [10], above 100 µM. In addition, the TGI in assay [1] was 78.1 µM; in [2], above 100 µM; in assay [3] it was above 100 µM; in assay [4], above 100 µM; in assay [5] it was above 100 µM; in assay [6] it was above 100 µM. Further, the TGI was above 100 µM in assay [7], 39.8 µM in [8], above 100 µM in assay [9] and above 100 µM in assay [10].

With `O=C(CCCn1c2c(sc3ncccc32)c(=O)n2nnc(-c3ccccc3)c12)NCCc1cnc[nH]1`, the GI50 was 11 µM in assay [1]; 0.31 µM in assay [2]; 1.41 µM in assay [3]; 12.4 µM in assay [4]; 16 µM in [5]; 8.74 µM in [6]. In addition, the GI50 is 15.1 µM in assay [7], 3.5 µM in assay [8], 2.03 µM in assay [9] and 12.6 µM in assay [10]. Also, the TGI in [1] was 23.6 µM; in assay [2], 15.6 µM; in assay [3], 4.76 µM; in assay [4] it was 26.6 µM; in [5], 30.5 µM; in [6], 34.7 µM. For the same compound, the TGI in assay [7] worked out at 28.9 µM; in assay [8], 19.4 µM; in assay [9], 29.9 µM; in assay [10] it was 25.7 µM.

In the case of `OC(c1ccccc1)(c1ccccc1)c1ccccn1`, the TGI in assay [1], in [2], in assay [3], in [4], in [5] and in assay [6] was above 100 µM throughout. In addition, the TGI in assay [7], in [8], in [9] and in [10] was above 100 µM throughout.

In the case of `CCCOc1ccc(/C(Cl)=C(\C=O)c2ccc(OC)c(OC)c2)cc1OCCC`, the TGI is above 100 µM in assay [1]; above 100 µM in assay [2]; 20.9 µM in [3]; 25.8 µM in assay [4]; 19.8 µM in assay [5]; above 100 µM in [6]. Further, the TGI in [7] is 75.3 µM; in assay [8], above 100 µM; in assay [9] it was 15.4 µM; in assay [10] it was above 100 µM.

Take `Cc1ccc(SSCCCS(=O)O)cc1`: the TGI in assay [1] is above 100 µM; in [2], above 100 µM; in assay [3], 6.49 µM; in [4], 32.3 µM; in assay [5], above 100 µM; in assay [6], above 100 µM. Further, the TGI in [7] was 79.5 µM; in assay [8] it was 96.8 µM; in [9], above 100 µM; in assay [10], above 100 µM.

Regarding `CCCNc1nc(N(C)O)nc(N(C)O)n1`, the GI50 in assay [1] is 0.783 µM; in [2] it was 2.24 µM; in assay [3], 0.59 µM; in [4], 1.31 µM; in [5], 3.09 µM; in assay [6] it was 1.8 µM. Moreover, the GI50 in assay [7] is 16.4 µM; in assay [8] it was 2.05 µM; in assay [9], 3.04 µM; in [10], 2.53 µM. Also, the TGI in assay [1] is 9.23 µM; in [2], above 100 µM; in assay [3], 4.56 µM; in [4] it was above 100 µM; in assay [5], above 56.9 µM; in assay [6] it was above 100 µM. In addition, the TGI is above 75.3 µM in assay [7], above 29.4 µM in assay [8], above 100 µM in assay [9] and above 43.4 µM in [10].

For `N/C(=N\O)c1ncc(-c2ccc(C(F)(F)F)cc2)c(NC2CCCCCC2)n1`, the GI50 in assay [1] is 8.8 µM and 3.74 µM; in assay [2], 4.36 µM and 1.71 µM; in [3], 2.06 µM; in [4], 8.76 µM and 2.85 µM; in [5] it was 9.12 µM and 2.65 µM; in [6], 2.34 µM. The GI50 is 5.11 µM in assay [7]; 9.68 µM and 3.24 µM in [8]; 3.92 µM in [9]; 3.54 µM in [10]. Besides, the TGI was 15.2 µM in [1]; 11.8 µM in [2]; 5.52 µM in assay [3]; 10.8 µM in [4]; 10.5 µM in [5]; 11.1 µM in assay [6]. Also, the TGI worked out at 20.6 µM in assay [7], 13.9 µM in assay [8], 14.3 µM in assay [9] and 13.1 µM in assay [10].

On to `C/C=C/C=N/N(c1nnc(-c2ccccc2)c(-c2ccccc2)n1)S(=O)(=O)c1ccc(C)cc1`, for which the TGI was 25.2 µM in [1]; above 100 µM in assay [2]; 6.36 µM in assay [3]; 13.8 µM in assay [4]; 11.6 µM in assay [5]; 28.1 µM in assay [6]. The TGI is 19.9 µM in assay [7], 15.8 µM in [8], 31.3 µM in [9] and 19.2 µM in assay [10].

Turning to `CC(C)(O)[C@@H]1CCC(C)([C@H]2[C@@H](O)CC3(C)C4CC(OC5OC(CO)C(O)C(O)C5O)C5C(C)(C)[C@@H](OC6OCC(O)C(O)C6O)CC[C@@]56C[C@@]46CC[C@]23C)O1` (some centres undefined), the TGI in [1], in [2], in [3], in [4], in assay [5] and in assay [6] was above 100 µM in each case. For the same compound, the TGI in assay [7], in assay [8], in assay [9] and in [10] was above 100 µM in each case.

As for `O=c1[nH]c(=S)[nH]c2c1sc(=S)n2-c1ccccc1`, the TGI in [1], in assay [2], in assay [3], in assay [4], in [5] and in [6] was above 100 µM throughout. The TGI in assay [7], in [8], in assay [9] and in assay [10] was above 100 µM each time.
